Source: ChEMBL document CHEMBL3596195, “Novel cajaninstilbene acid derivatives as antibacterial agents” (Eur J Med Chem, 2015)
In brackets after ≈: the same amount, converted by molar mass.

Tests used:
Assay type in all cases: functional
[1] = test system: Staphylococcus aureus; assay: Antibacterial activity against Staphylococcus aureus ATCC25923 assessed as bacterial growth inhibition after 24 hrs by broth dilution method; settings: ATCC25923, 24 h
[2] = test system: Staphylococcus epidermidis; assay: Antibacterial activity against Staphylococcus epidermidis ATCC12228 assessed as bacterial growth inhibition after 24 hrs by broth dilution method; settings: ATCC12228, 24 h
[3] = test system: Bacillus subtilis; assay: Antibacterial activity against Bacillus subtilis ATCC6633 assessed as bacterial growth inhibition after 24 hrs by broth dilution method; settings: ATCC6633, 24 h
[4] = test system: Escherichia coli; assay: Antibacterial activity against Escherichia coli ATCC25922 assessed as bacterial growth inhibition after 24 hrs by broth dilution method; settings: ATCC25922, 24 h
[5] = test system: Proteus vulgaris; assay: Antibacterial activity against Proteus vulgaris ATCC49101 assessed as bacterial growth inhibition after 24 hrs by broth dilution method; settings: ATCC49101, 24 h
[6] = test system: Pseudomonas aeruginosa; assay: Antibacterial activity against Pseudomonas aeruginosa ATCC2785 assessed as bacterial growth inhibition after 24 hrs by broth dilution method; settings: ATCC2785, 24 h
[7] = test system: Staphylococcus aureus; assay: Antibacterial activity against methicillin-resistant Staphylococcus aureus ATCC43300 assessed as bacterial growth inhibition after 24 hrs by broth dilution method; settings: ATCC43300, 24 h
[8] = test system: Staphylococcus aureus; assay: Antibacterial activity against methicillin-resistant Staphylococcus aureus ATCC523512 assessed as bacterial growth inhibition after 24 hrs by broth dilution method; settings: ATCC523512, 24 h
[9] = test system: Staphylococcus aureus; assay: Antibacterial activity against methicillin-resistant Staphylococcus aureus ATCC425055 assessed as bacterial growth inhibition after 24 hrs by broth dilution method; settings: ATCC425055, 24 h
[10] = test system: Staphylococcus aureus; assay: Antibacterial activity against methicillin-resistant Staphylococcus aureus ATCC513045 assessed as bacterial growth inhibition after 24 hrs by broth dilution method; settings: ATCC513045, 24 h
[11] = test system: Staphylococcus aureus; assay: Antibacterial activity against methicillin-resistant Staphylococcus aureus ATCC62202 assessed as bacterial growth inhibition after 24 hrs by broth dilution method; settings: ATCC62202, 24 h
[12] = test system: Staphylococcus aureus; assay: Antibacterial activity against methicillin-resistant Staphylococcus aureus ATCC51033 assessed as bacterial growth inhibition after 24 hrs by broth dilution method; settings: ATCC51033, 24 h
[13] = test system: Staphylococcus aureus; assay: Antibacterial activity against methicillin-resistant Staphylococcus aureus ATCC52056 assessed as bacterial growth inhibition after 24 hrs by broth dilution method; settings: ATCC52056, 24 h
[14] = test system: Staphylococcus aureus; assay: Antibacterial activity against methicillin-resistant Staphylococcus aureus ATCC515992 assessed as bacterial growth inhibition after 24 hrs by broth dilution method; settings: ATCC515992, 24 h
[15] = test system: Staphylococcus aureus; assay: Antibacterial activity against methicillin-resistant Staphylococcus aureus ATCC510019 assessed as bacterial growth inhibition after 24 hrs by broth dilution method; settings: ATCC510019, 24 h

Row | Compound | MIC [1] | MIC [2] | MIC [3] | MIC [4] | MIC [5] | MIC [6] | MIC [7] | MIC [8] | MIC [9] | MIC [10] | MIC [11] | MIC [12] | MIC [13] | MIC [14] | MIC [15]
1 | COc1ccc(/C=C/c2cc(OC)c(CC=C(C)C)c(O)c2C(=O)O)cc1 | 32 µg/mL (≈ 86.9 µM) | 32 µg/mL (≈ 86.9 µM) | 16 µg/mL (≈ 43.4 µM) | > 128 µg/mL | > 64 µg/mL | > 64 µg/mL | 16 µg/mL (≈ 43.4 µM) | 16 µg/mL (≈ 43.4 µM) | 8 µg/mL (≈ 21.7 µM) | 16 µg/mL (≈ 43.4 µM) | 16 µg/mL (≈ 43.4 µM) | 32 µg/mL (≈ 86.9 µM) | 16 µg/mL (≈ 43.4 µM) | 16 µg/mL (≈ 43.4 µM) | 16 µg/mL (≈ 43.4 µM)
2 | COC(=O)c1c(/C=C/c2ccccc2F)cc(OC)c(CC=C(C)C)c1O | > 128 µg/mL | > 128 µg/mL | > 128 µg/mL | > 128 µg/mL | > 128 µg/mL | > 128 µg/mL | 128 µg/mL (≈ 346 µM) | > 128 µg/mL | 128 µg/mL (≈ 346 µM) | 128 µg/mL (≈ 346 µM) | 128 µg/mL (≈ 346 µM) | > 128 µg/mL | > 128 µg/mL | > 128 µg/mL | > 128 µg/mL
3 | COC(=O)c1c(/C=C/c2cccc(F)c2)cc(OC)c(CC=C(C)C)c1O | 64 µg/mL (≈ 173 µM) | > 128 µg/mL | 128 µg/mL (≈ 346 µM) | > 128 µg/mL | > 128 µg/mL | > 128 µg/mL | > 128 µg/mL | 64 µg/mL (≈ 173 µM) | > 128 µg/mL | 128 µg/mL (≈ 346 µM) | 128 µg/mL (≈ 346 µM) | 128 µg/mL (≈ 346 µM) | > 128 µg/mL | > 128 µg/mL | 128 µg/mL (≈ 346 µM)
4 | COC(=O)c1c(O)cc(OC)cc1/C=C/c1cccc(C#N)c1 | > 128 µg/mL | > 128 µg/mL | > 128 µg/mL | > 128 µg/mL | > 128 µg/mL | > 128 µg/mL | > 128 µg/mL | > 128 µg/mL | > 128 µg/mL | > 128 µg/mL | > 128 µg/mL | 128 µg/mL (≈ 414 µM) | > 128 µg/mL | 64 µg/mL (≈ 207 µM) | > 128 µg/mL
5 | CCn1cc(C(=O)O)c(=O)c2cc(F)c(N3CCNCC3)cc21 [NORFLOXACIN] | 2 µg/mL (≈ 6.26 µM) | 2 µg/mL (≈ 6.26 µM) | 2 µg/mL (≈ 6.26 µM) | 32 µg/mL (≈ 100 µM) | 16 µg/mL (≈ 50.1 µM) | 16 µg/mL (≈ 50.1 µM) | 4 µg/mL (≈ 12.5 µM) | 8 µg/mL (≈ 25.1 µM) | 4 µg/mL (≈ 12.5 µM) | 4 µg/mL (≈ 12.5 µM) | 8 µg/mL (≈ 25.1 µM) | 4 µg/mL (≈ 12.5 µM) | 8 µg/mL (≈ 25.1 µM) | 16 µg/mL (≈ 50.1 µM) | 8 µg/mL (≈ 25.1 µM)
6 | COC(=O)c1c(/C=C/c2ccc(OC)cc2)cc(OC)c(CC=C(C)C)c1O | 128 µg/mL (≈ 335 µM) | > 128 µg/mL | > 128 µg/mL | > 128 µg/mL | > 128 µg/mL | > 128 µg/mL | 128 µg/mL (≈ 335 µM) | 128 µg/mL (≈ 335 µM) | 128 µg/mL (≈ 335 µM) | 128 µg/mL (≈ 335 µM) | > 128 µg/mL | > 128 µg/mL | 128 µg/mL (≈ 335 µM) | > 128 µg/mL | 128 µg/mL (≈ 335 µM)
7 | COc1cc(/C=C/c2cc(OC)c(OC)c(OC)c2)c(C(=O)O)c(O)c1CC=C(C)C | 64 µg/mL (≈ 149 µM) | 32 µg/mL (≈ 74.7 µM) | 16 µg/mL (≈ 37.3 µM) | > 128 µg/mL | > 64 µg/mL | > 64 µg/mL | 16 µg/mL (≈ 37.3 µM) | 16 µg/mL (≈ 37.3 µM) | 16 µg/mL (≈ 37.3 µM) | 16 µg/mL (≈ 37.3 µM) | 32 µg/mL (≈ 74.7 µM) | 64 µg/mL (≈ 149 µM) | 32 µg/mL (≈ 74.7 µM) | 16 µg/mL (≈ 37.3 µM) | 16 µg/mL (≈ 37.3 µM)
8 | COc1cc(/C=C/c2ccccc2)c(C(=O)O)c(O)c1CC=C(C)C | 16 µg/mL (≈ 47.3 µM) | 16 µg/mL (≈ 47.3 µM) | 32 µg/mL (≈ 94.6 µM) | > 128 µg/mL | > 64 µg/mL | > 64 µg/mL | 16 µg/mL (≈ 47.3 µM) | 32 µg/mL (≈ 94.6 µM) | 16 µg/mL (≈ 47.3 µM) | 16 µg/mL (≈ 47.3 µM) | 8 µg/mL (≈ 23.6 µM) | 16 µg/mL (≈ 47.3 µM) | 16 µg/mL (≈ 47.3 µM) | 32 µg/mL (≈ 94.6 µM) | 32 µg/mL (≈ 94.6 µM)
9 | COC(=O)c1c(O)cc(OC)cc1/C=C/c1ccccc1F | > 128 µg/mL | 128 µg/mL (≈ 423 µM) | 128 µg/mL (≈ 423 µM) | > 128 µg/mL | > 128 µg/mL | 128 µg/mL (≈ 423 µM) | > 128 µg/mL | > 128 µg/mL | > 128 µg/mL | > 128 µg/mL | > 128 µg/mL | > 128 µg/mL | > 128 µg/mL | > 128 µg/mL | > 128 µg/mL
10 | COc1cc(/C=C/c2ccc(Cl)cc2)c(C(=O)O)c(O)c1CC=C(C)C | 8 µg/mL (≈ 21.5 µM) | 4 µg/mL (≈ 10.7 µM) | 2 µg/mL (≈ 5.36 µM) | 128 µg/mL (≈ 343 µM) | > 64 µg/mL | > 64 µg/mL | 2 µg/mL (≈ 5.36 µM) | 4 µg/mL (≈ 10.7 µM) | 4 µg/mL (≈ 10.7 µM) | 4 µg/mL (≈ 10.7 µM) | 2 µg/mL (≈ 5.36 µM) | 0.5 µg/mL (≈ 1.34 µM) | 2 µg/mL (≈ 5.36 µM) | 4 µg/mL (≈ 10.7 µM) | 1 µg/mL (≈ 2.68 µM)
11 | COc1cc(/C=C/c2ccc(C)cc2)c(C(=O)O)c(O)c1CC=C(C)C | 16 µg/mL (≈ 45.4 µM) | 32 µg/mL (≈ 90.8 µM) | 16 µg/mL (≈ 45.4 µM) | > 128 µg/mL | > 64 µg/mL | > 64 µg/mL | 32 µg/mL (≈ 90.8 µM) | 32 µg/mL (≈ 90.8 µM) | 16 µg/mL (≈ 45.4 µM) | 8 µg/mL (≈ 22.7 µM) | 32 µg/mL (≈ 90.8 µM) | 16 µg/mL (≈ 45.4 µM) | 16 µg/mL (≈ 45.4 µM) | 32 µg/mL (≈ 90.8 µM) | 32 µg/mL (≈ 90.8 µM)
12 | COC(=O)c1c(/C=C/c2cc(OC)c(OC)c(OC)c2)cc(OC)c(CC=C(C)C)c1O | > 128 µg/mL | 64 µg/mL (≈ 145 µM) | > 128 µg/mL | > 128 µg/mL | > 128 µg/mL | > 128 µg/mL | > 128 µg/mL | > 128 µg/mL | > 128 µg/mL | > 128 µg/mL | > 128 µg/mL | 128 µg/mL (≈ 289 µM) | > 128 µg/mL | 64 µg/mL (≈ 145 µM) | > 128 µg/mL
13 | COC(=O)c1c(/C=C/c2cccc(C#N)c2)cc(OC)c(CC=C(C)C)c1O | > 128 µg/mL | 128 µg/mL (≈ 339 µM) | > 128 µg/mL | > 128 µg/mL | > 128 µg/mL | > 128 µg/mL | > 128 µg/mL | > 128 µg/mL | > 128 µg/mL | > 128 µg/mL | 128 µg/mL (≈ 339 µM) | > 128 µg/mL | > 128 µg/mL | > 128 µg/mL | > 128 µg/mL
